“Also recorded” adds a separate entry of the source.
Assays:
SERCA2a SUMOylation = assay: Endogenous SERCA2a SUMOylation, SUMO-1 conjugates and Ubc9 in cardiomyocytes (immunoprecipitation / western blot); format: cell-based, Sprague–Dawley rats
Protocol: Figure 1 N106 increases SERCA2a’s cellular activity and SUMOylation in adult cardiomyocytes. In-vitro characterization of activators of SERCA2a SUMOylation. Cell-based screening of small molecules identified one promising compound. Adult ventricular cardiomyocytes were isolated from Sprague–Dawley rats and treated with small molecules on dose-dependent manner for 24 h. DMSO-treated cardiomyocytes were used as a negative control. (a) Chemical structure of SERCA2a SUMOylation activator. N106, N-(4-methoxybenzo[d]thiazol-2-yl)-5-(4-methoxyphenyl)-1,3,4-oxadiazol-2-amine. (b-g) The effects of N106 compound in cardiomyocyte contractility and calcium transient. The dose-dependent effects of N106 compound presented on peak shortening, the time to maximal departure velocity, the time to maximal return velocity, calcium ratio, decay time constant (τ) and the time to 90% baseline (t90) fluorescence in cardiomyocytes were assessed using a video-based edge-detection system (IonOptix Inc.). n=25 cardiomyocytes from each three of hearts per condition. (h) The effects of N106 compound on the ATPase activity of SERCA2a. The ATPase activity were measured at 25 °C in 50 mM MOPS, 100 mM KCl, 5 mM MgCl2, 1 mM […] at pCa 5.0 by using a coupled enzyme system consisting of pyruvate kinase and lactate dehydrogenase, and monitoring the oxidation of the reduced form of NADH at […]. The enzyme activity was determined by using same set of cardiomyocytes. (i) The effect of N106 compound for the formation of SUMOylated SERCA2a was determined using the same set of cardiomyocytes. Endogenous SERCA2a SUMOylation was detected by immunoprecipitation with anti-SERCA2a and then western blotting with anti-SUMO-1 antibodies. The experiments shown are representative of three independent experiments with similar results. (j) The effect of N106 compound on global SUMOylation was measured by western blot analysis with an anti-SUMO-1 antibody in the same set of cardiomyocytes. The experiments shown are representative of three independent western blottings. Data are represented as mean±s.e.m. (n=3 mice hearts per each condition). Data are represented as mean±s.e.m. *P≤0.05; **P<0.001 (Student’s t-test) from DMSO control.
Protein extracts (20∼50 μg) were obtained from isolated cardiomyocytes, which was lysed in RIPA buffer (R&D Systems Inc., MN, USA) contained protease inhibitors (Complete mini, Roche Diagnostics, IN, USA) and 20 mM NEM (Sigma-Aldrich). For SERCA2a SUMOylation assays, cardiac protein extracts were immunoprecipitated with a SUMO-1 agarose resin (Santa Cruz Biotechnology Inc., CA, USA) for overnight at 4 °C. The resins were washed with cold lysis buffer three times. The immunocomplexes were then resolved by SDS–PAGE and western blot analysis was performed using a SERCA2a-specific antibody. […]
treated with small molecules were determined: peak shortening (b) and calcium transient (c). […]

SERCA2a = SERCA2a ATPase activity assay (coupled enzyme) in cardiomyocytes; format: cell-based, Sprague–Dawley rats
Protocol: Figure 1 N106 increases SERCA2a’s cellular activity and SUMOylation in adult cardiomyocytes. In-vitro characterization of activators of SERCA2a SUMOylation. Cell-based screening of small molecules identified one promising compound. Adult ventricular cardiomyocytes were isolated from Sprague–Dawley rats and treated with small molecules on dose-dependent manner for 24 h. DMSO-treated cardiomyocytes were used as a negative control. (a) Chemical structure of SERCA2a SUMOylation activator. N106, N-(4-methoxybenzo[d]thiazol-2-yl)-5-(4-methoxyphenyl)-1,3,4-oxadiazol-2-amine. (b-g) The effects of N106 compound in cardiomyocyte contractility and calcium transient. The dose-dependent effects of N106 compound presented on peak shortening, the time to maximal departure velocity, the time to maximal return velocity, calcium ratio, decay time constant (τ) and the time to 90% baseline (t90) fluorescence in cardiomyocytes were assessed using a video-based edge-detection system (IonOptix Inc.). n=25 cardiomyocytes from each three of hearts per condition. […] The ATPase activity were measured at 25 °C in 50 mM MOPS, 100 mM KCl, 5 mM MgCl2, 1 mM […] at pCa 5.0 by using a coupled enzyme system consisting of pyruvate kinase and lactate dehydrogenase, and monitoring the oxidation of the reduced form of NADH at […]. The enzyme activity was determined by using same set of cardiomyocytes. […]

[1] = 10 μM, 10∼30 min, sustained at 24 h

- SERCA2a’s ATPase activity, time course (SERCA2a; [1]): increased
- SERCA2a ATPase activity (SERCA2a; increasing N106 concentration, 24 h, pCa 5.0): increased
SMILES: COc1ccc(-c2nnc(Nc3nc4c(OC)cccc4s3)o2)cc1 [Compound N106, N-(4-methoxybenzo[d]thiazol-2-yl)-5-(4-methoxyphenyl)-1,3,4-oxadiazol-2-amine]
- endogenous SERCA2a SUMOylation (SERCA2a SUMOylation; 10 μM, 24 h): enhancement of endogenous SERCA2a SUMOylation; also recorded: significantly induced
- protein levels of E2 conjugation enzyme, Ubc9 (SERCA2a SUMOylation; 10 μM, 24 h): without upregulation of Ubc9
- SERCA2a SUMOylation, time course (SERCA2a SUMOylation; [1]): increased
- whole SUMO-1 conjugates (SERCA2a SUMOylation; in response to the concentration of N106, 24 h): increased
- levels of SERCA2a SUMOylation (SERCA2a SUMOylation; increasing N106 concentration, 24 h): increased

Reference: article PMC4467461, “Small-molecule activation of SERCA2a SUMOylation for the treatment of heart failure” (Nature Communications, 2015)
